Assay results from US9422340B2, “Macrocyclic compounds useful as inhibitors of histone deacetylases” (The Regents of the University of Colorado, A Body Corporate, priority 2010, dated 2016).
Like-named read-outs stand apart in the source and are kept apart here.

Assays:
HCT 116 cells = conditions: Zeng et al. 2010; cited from earlier work
HCT116 cells [1] = assay: DNA microarray gene expression profiles; type: cell-based, human; conditions: SAHA (200 μM), Largazole (20 nM), Example 1 (20 nM)
Protocol: FIG. 9A illustrates hierarchical clustering and heatmaps of changes in gene expression profiles in the HCT116 cells with indicated treatment. FIGS. 9B and 9C illustrate Venn diagrams showing unique and shared gene sets whose expression levels changed by more than 2 fold upon exposure to the indicated treatment at 6 hr (FIG. 9B) and 24 hr (FIG. 9C).
Expression values files for each sample were generated using the Robust Multichip Average (RMA) algorithm. Differential expression was determined using the R software package limma to generate linear models and empirical Bayesian statistics. Genes were considered differentially expressed if the P value, adjusted for multiple testing using the Benjamini and Hochberg method, was ≦5% and the log-2 fold change was […].
HCT116 cells were seeded in triplicate at approximately 60% confluency. […] Cells were incubated for 6 or 24 hours followed by a wash with phosphate-buffered saline. Total RNA was extracted using a RNeasy Mini RNA extraction kit (QIAGEN Inc., Valencia, Calif.) immediately after wash. Total RNA concentration was determined using a Lambda 800 UV/VIS spectrometer (PerkinElmer, Waltham, Mass.) and processed for labeling hybridization, wash, and scan at University of Colorado-Denver Health Sciences Center. Three GeneChip® Human Gene 1.0 ST (Affymetrix, Santa Clara, Calif.) arrays were used for each of the time points, cell types, and treatments for a total of 24 arrays. Expression values files for each sample were generated using the Robust Multichip Average (RMA) algorithm. Differential expression was determined using the R software package limma to generate linear models and empirical Bayesian statistics. Genes were considered differentially expressed if the P value, adjusted for multiple testing using the Benjamini and Hochberg method, was ≦5% and the log-2 fold change was […]. GeneSpring GX (Agilent, Santa Clara, Calif.) software was used for hierarchical clustering and generating heatmaps.

HME = assay: Cell growth inhibition, crystal violet cell viability assay (control cells); type: cell-based; conditions: read-out: Cell Growth Inhibition GI50, HME
Protocol: (§1) Comparative analysis of the cytotoxic effect of largazole in human cancer cell lines HCT116, SW480 and MDA-MB231. HME were used as control. 8,000 cells were plated in 96-well plates where rows 1 and 10 were treated with DMSO, row 2 had no cells to establish background levels, rows 3-9 contained decreasing concentrations of compound. Cells were incubated with largazole for 48 hours, followed by staining with crystal violet dye. The absorbance at 588 nm was measured using a Tecan Sail re II plate reader. Experiments were performed in replicates of six, and concentration-response curves were generated by nonlinear least square regression analysis of the data using GraphPad Prism (San Diego, Calif.). The growth inhibition (GI50) for each compound was defined as a concentration of drug leading to a 50% reduction in A588 compared with controls
SW480, HCT116, and MDA-MB231 cell lines were purchased from the American Tissue Culture Collection. SW480 and MDA-MB231 cells were grown in Dulbecco's modified Eagle's medium supplemented with 10% fetal calf serum at 37° C. in a humidified 5% CO2 atmosphere. The HCT116 cell line was cultured in McCoy's 5a medium [ATCC; Cat. No. 30-2007] with 1.5 mM L-glutamine and 10% fetal bovine serum [ATCC; Cat. No. 30-2020]. […]
(§2) 8,000 cells from different cancers were plated in flat-bottomed 96-well microplates. […] Cell viability was determined 48 hours later using crystal violet dye (Sigma-Aldrich), which was solubilized in ethanol, and absorbance was measured at 588 nm using a Tecan Sail re II plate reader. […]
as §2, with “cancer or nontransformed cells” for “cancers”, “Safire” for “Sail re”

MDA-MB231 = assay: Cell growth inhibition, crystal violet cell viability assay; type: cell-based; conditions: Homo sapiens, read-out: Cell Growth Inhibition GI50, MDA-MB231
Protocol: as §1
(§3) SW480, HCT116, and MDA-MB231 cell lines were purchased from the American Tissue Culture Collection. SW480 and MDA-MB231 cells were grown in Dulbecco's modified Eagle's medium supplemented with 10% fetal calf serum at 37° C. in a humidified 5% CO2 atmosphere. The HCT116 cell line was cultured in McCoy's 5a medium [ATCC; Cat. No. 30-2007] with 1.5 mM L-glutamine and 10% fetal bovine serum [ATCC; Cat. No. 30-2020]. HME cells (Clonetics, San Diego, Calif.; donor 4144) were cultured serum-free in Clonetics' recommended medium and supplements (52 μg/ml bovine pituitary extract, 0.5 μg/ml hydrocortisone, 0.01 μg/ml human epidermal growth factor, 5 μg/ml insulin, 50 μg/ml gentamicin and 50 ng/ml amphotericin-B).
(§4) 8,000 cells from different cancers were plated in flat-bottomed 96-well microplates. (Background control wells lacking the cells but containing the same volume of media were included in each assay plate). 24 hours after seeding, new media was added. To assess the in vitro cytotoxicity, each compound was dissolved in DMSO and prepared immediately before the experiments and was diluted into complete medium before addition to cell cultures. Test compounds were then added to the culture medium for designated decreasing concentrations (600 nM to 10 nM). Cell viability was determined 48 hours later using crystal violet dye (Sigma-Aldrich), which was solubilized in ethanol, and absorbance was measured at 588 nm using a Tecan Sail re II plate reader. Experiments were performed in replicates of six, and concentration-response curves were generated by nonlinear least square regression analysis of the data using GraphPad Prism (San Diego, Calif.). The growth inhibition (GI50) for each compound was defined as a concentration of drug leading to a 50% reduction in A588 compared with controls.
as §4, with “cancer or nontransformed cells” for “cancers”, “Safire” for “Sail re”, “concentration—response” for “concentration-response”

HCT-116 = assay: as above; type: cell-based; conditions: Homo sapiens, read-out: Cell Growth Inhibition GI50, HCT-116
Protocol: as §1, §3, §4
as §4, with “cancer or nontransformed cells” for “cancers”, “Safire” for “Sail re”, “concentration—response” for “concentration-response”

HDAC = conditions: read-out: IC50, HDAC inhibition in treated cells; cells treated with compound; Ying et al. 2008a; cited from earlier work
HCT116 cells [2] = conditions: Ying et al. 2008b, read-out: GI50, antigrowth activity; cited from earlier work
melanoma cell lines = conditions: series of melanoma cell lines; Bowers et al. 2008; cited from earlier work
[3] = tested on: acetylated histone H3 in HCT116 cells; assay: Western blot of histone H3 hyperacetylation; type: cell-based, human; conditions: 8 hours, concentrations ranging from 1/μM to 100 nM
Protocol: Cell extracts were separated via SDS-PAGE electrophoresis and the resulting bands were detected utilizing anti-acetyl-H3 antibodies. DMSO-treated cells serve as a negative control, while the expression of GAPDH was used to show equal loading. […] Cells were treated with the indicated compound for 8 hours with concentrations ranging from 1/μM to 100 nM and immunoblotted with anti-acetylhistone H3 antibody.
For western blot analysis, total protein extracts were prepared by lysing cells in lysis buffer (50 mM Tris-Cl [pH 8.0], 5 mM EDTA, 150 mM NaCl, 1% NP-40, 0.1% SDS, and 1 mM phenylmethylsulfonyl fluoride). 50 μg of total soluble proteins were separated by SDS-PAGE. Proteins were transferred to nitrocellulose membrane and the membrane was blocked for 1 hour with 4% nonfat milk, followed by overnight incubation at 4° C. with primary antibodies against acetylated histone H3 (1:1000, Upstate, #06-599), Ezrin (1:10000, Sigma, E-8897), Glyceraldehyde 3-phosphate dehydrogenase (GAPDH; 1:20000, Santa Cruz, sc-47724), histone H3 (H3; 1:1000, Santa Cruz, sc-8654). Membranes were then incubated with peroxidase conjugated secondary antibodies for one hour at room temperature. Detection was performed using Super Signal WestDura. The expression of Ezrin and GAPDH was used as loading control.

[4] = HME control cells, 48 hours, crystal violet, A588
[5] = MDA-MB-231, MDA-MB231, 48 hours, crystal violet, A588
[6] = HCT-116, 48 hours, crystal violet, A588

GI50 (MDA-MB231; [5]) | GI50 (HCT-116; [6]) | Molecule | GI50 (HCT 116 cells) | # of Genes 2 Fold-Change in comparison to DMSO control (HCT116 cells [1]; 6 hr) | # of Genes 2 Fold-Change in comparison to DMSO control (HCT116 cells [1]; 24 hr) | GI50 (HME; [4]) | further results
– | – | CCCCCCCC(=O)SCCC=CC1CC(=O)NCc2nc(cs2)C2=NC(C)(CS2)C(=O)NC(CC(C)C)C(=O)O1 (stereo not shown) [Leu 1] | 560 nM | – | – | – | –
– | – | CCCCCCCC(=O)SCC/C=C/[C@@H]1CC(=O)NCc2nc(cs2)C2=N[C@@](C)(CS2)C(=O)N[C@@H](C(C)C)C(=O)O1 [Largazole] | – | 529 | 566 | – | GI50 (HME; 48 h): ≥ 600 nM; GI50 (MDA-MB231; MDA-MB-231, 48 h): 71 ± 8 nM; GI50 (HCT-116; HCT-116, 48 h): 28 nM
– | – | largazole thiol | – | – | – | – | IC50 (HDAC): 209 nM; GI50 (HCT116 cells [2]): 38 nM; IC50 (melanoma cell lines): 380 to 2600 nM
– | – | CCCCCCCC(=O)SCCC=CC1CC(=O)NCc2nc(cs2)C2=NC(C)(CS2)C(=O)NC(Cc2ccccc2)C(=O)O1 (stereo not shown) [Phe 1] | 260 nM | – | – | – | –
53 ± 3 nM | 17 nM | CCCCCCCC(=O)SCC/C=C/[C@@H]1CC(=O)NCc2nc(co2)C(=O)NC(C)(C)C(=O)N[C@@H](C)C(=O)O1 [Example 4, S-(E)-4-((7S,10S)-4,4,7-trimethyl-2,5,8,12-tetraoxo-9,16-dioxa-3,6,13,18-tetraazabicyclo[13.2.1]octadeca-1(17),15(18)-dien-10-yl)but-3-enyl octanethioate] | – | – | – | ≥ 600 nM | –
53 nM | 16 ± 2 nM | CCCCCCCC(=O)SCC/C=C/[C@@H]1CC(=O)NCc2nc(cs2)C(=O)NC(C)(C)C(=O)N[C@@H](C(C)C)C(=O)O1 [Example 1, S-(E)-4-((7S,10S)-7-isopropyl-4,4-dimethyl-2,5,8,12-tetraoxo-9-oxa-16-thia-3,6,13,18-tetraazabicyclo[13.2.1]octadeca-1(17),15(18)-dien-10-yl)but-3-enyl octanethioate] | – | 421 | 174 | ≥ 600 nM | Deacetylase inhibition, dose response of H3 acetylation (FIG. 8B) [3]: slightly more potent deacetylase inhibitors than largazole (L) and SAHA
